# Literature values in patent US9185913B2, “10H-benzo[g]pteridine-2,4-dione derivatives, method for the production thereof, and use thereof” (TRIOPTOTEC GMBH, priority 2011, dated 2015).
# Experiments:
# microorganisms [1] = test system: microorganisms
# microorganisms [2] = test system: microorganisms; remark: listed apart in the source
Structure (SMILES),Affinity for microorganisms (microorganisms [1]),Inactivation of microorganisms (microorganisms [2])
Cc1cc2nc3c(=O)[nH]c(=O)nc-3n(C[C@H](O)[C@H](O)[C@H](O)CO)c2cc1C [riboflavin],low,inadequate
CC(=O)OC[C@@H](OC(C)=O)[C@@H](OC(C)=O)[C@H](Cn1c2nc(=O)[nH]c(=O)c-2nc2cc(C)c(C)cc21)OC(C)=O [tetraacetylriboflavin],low,inadequate
